# System: yeast genes (level of expressed mRNA)
# Assay: DNA chip analysis of expressed mRNA of yeast genes after 2 h culture with a toxic chemical substance
# Format: cell-based, Saccharomyces cerevisiae S288C
# Conditions: for The level of expressed mRNA in the presence of chemical substance/ (ratio to absence): transport facilitation protein gene; for The level of expressed mRNA in the presence of chemical substance/: ratio to no chemical; for The level of expressed mRNA in the presence of chemical substance/ in its absence, gene YDL078C: yeast gene YDL078C
# Method in brief: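 S. cerevisiae S288C in YPD at 25 °C was exposed at log phase for 2 h to a growth-inhibiting, non-lethal concentration of the chemical. Poly(A) mRNA was reverse-transcribed with Cy3- or Cy5-dUTP and hybridized to a whole-genome yeast DNA chip (65 °C, >12 h). Values are fluorescence ratios versus untreated cells.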
substance,measurement,setting,value
sodium dodecylbenzosulfonate [(17)],"The level of expressed mRNA in the presence of chemical substance/ (ratio to absence), gene YBR122C","yeast gene YBR122C, mitochondria-located protein genes, 2 h culture with chemical",0.9
same,The level of expressed mRNA in the presence of chemical substance/ (ratio to absence),yeast gene YBR127C,0.8
same,The level of expressed mRNA in the presence of chemical substance/ (ratio to absence),yeast gene YBR132C,1.1
same,The level of expressed mRNA in the presence of chemical substance/in the absence of chemical substance,yeast gene YBR149W,2.1
same,The level of expressed mRNA in the presence of chemical substance/ (ratio to absence),yeast gene YBR207W,1.2
same,The level of expressed mRNA in the presence of chemical substance/The level of expressed mRNA in the absence of chemical substance,yeast gene YBR214W,1.1
same,The level of expressed mRNA in the presence of chemical substance/ (ratio to absence),yeast gene YBR241C,1.0
same,"The level of expressed mRNA in the presence of chemical substance/ (ratio to absence), gene YBR251W","yeast gene YBR251W, mitochondria-located protein genes, 2 h culture with chemical",0.9
same,The level of expressed mRNA in the presence of chemical substance/in the absence of chemical substance,yeast gene YBR256C,2.6
same,The level of expressed mRNA in the presence of chemical substance/,yeast gene YBR269C,1.5
same,The level of expressed mRNA in the presence of chemical substance/,yeast gene YBR280C,1.1
same,The level of expressed mRNA in the presence of chemical substance/in the absence of chemical substance,yeast gene YBR284W,1.1
same,The level of expressed mRNA in the presence of chemical substance/,yeast gene YBR285W,2.5
same,The level of expressed mRNA in the presence of chemical substance/ (ratio to absence),yeast gene YBR291C,0.9
same,The level of expressed mRNA in the presence of chemical substance/,yeast gene YBR292C,0.9
same,The level of expressed mRNA in the presence of chemical substance/ (ratio to absence),yeast gene YBR293W,1.0
same,The level of expressed mRNA in the presence of chemical substance/in the absence of chemical substance,yeast gene YBR294W,1.0
same,The level of expressed mRNA in the presence of chemical substance/ (ratio to absence),yeast gene YBR295W,1.3
same,The level of expressed mRNA in the presence of chemical substance/in the absence of chemical substance,yeast gene YBR296C,3.8
same,"The level of expressed mRNA in the presence of chemical substance/ (in its absence), gene YBR298C","yeast gene YBR298C, ratio of DNA chip fluorescence intensity to that without chemical substance",0.9
same,The level of expressed mRNA in the presence of chemical substance/in the absence of chemical substance,yeast gene YCL018W,1.3
same,The level of expressed mRNA in the presence of chemical substance/The level of expressed mRNA in the absence of chemical substance,yeast gene YCL020W,0.9
same,The level of expressed mRNA in the presence of chemical substance/ (ratio to absence),yeast gene YCL025C,0.6
same,The level of expressed mRNA in the presence of chemical substance/The level of expressed mRNA in the absence of chemical substance,yeast gene YCL027W,0.7
same,The level of expressed mRNA in the presence of chemical substance/ (ratio to absence),yeast gene YCL038C,1.4
same,The level of expressed mRNA in the presence of chemical substance/in the absence of chemical substance,yeast gene YCL040W,1.4
same,The level of expressed mRNA in the presence of chemical substance/in the absence of chemical substance,yeast gene YCL043C,0.9
same,The level of expressed mRNA in the presence of chemical substance/in the absence of chemical substance,yeast gene YCL050C,1.0
same,The level of expressed mRNA in the presence of chemical substance/ (ratio to absence),yeast gene YCL069W,1.0
same,The level of expressed mRNA in the presence of chemical substance/The level of expressed mRNA in the absence of chemical substance,yeast gene YCR004C,1.4
same,The level of expressed mRNA in the presence of chemical substance/in the absence of chemical substance,yeast gene YCR012W,0.8
same,The level of expressed mRNA in the presence of chemical substance/ (ratio to absence),yeast gene YCR024C-A,0.9
same,The level of expressed mRNA in the presence of chemical substance/ (ratio to absence),yeast gene YCR037C,1.4
same,"The level of expressed mRNA in the presence of chemical substance/ (ratio to absence), gene YCR046C","yeast gene YCR046C, mitochondria-located protein genes, 2 h culture with chemical",1.3
same,The level of expressed mRNA in the presence of chemical substance/The level of expressed mRNA in the absence of chemical substance,yeast gene YCR071C,1.2
same,"The level of expressed mRNA in the presence of chemical substance/ (ratio to absence), gene YCR083W","yeast gene YCR083W, mitochondria-located protein genes, 2 h culture with chemical",1.3
same,The level of expressed mRNA in the presence of chemical substance/ (ratio to absence of chemical substance),"yeast gene YCR083W, stress protein genes, DNA chip",1.3
same,The level of expressed mRNA in the presence of chemical substance/The level of expressed mRNA in the absence of chemical substance,yeast gene YCR088W,1.4
same,The level of expressed mRNA in the presence of chemical substance/ (ratio to absence),yeast gene YCR098C,1.7
same,The level of expressed mRNA in the presence of chemical substance/in the absence of chemical substance,yeast gene YCR107W,1.3
same,The level of expressed mRNA in the presence of chemical substance/The level of expressed mRNA in the absence of chemical substance,yeast gene YDL008W,1.5
same,The level of expressed mRNA in the presence of chemical substance/in the absence of chemical substance,yeast gene YDL010W,1.5
same,The level of expressed mRNA in the presence of chemical substance/in the absence of chemical substance,yeast gene YDL021W,1.9
same,The level of expressed mRNA in the presence of chemical substance/in the absence of chemical substance,yeast gene YDL024C,0.9
same,"The level of expressed mRNA in the presence of chemical substance/ in its absence, gene YDL067C","yeast gene YDL067C, energy system protein genes, 2 h culture with the chemical, ratio to control without chemical",1.2
same,"The level of expressed mRNA in the presence of chemical substance/ (ratio to absence), gene YDL067C","yeast gene YDL067C, mitochondria-located protein genes, 2 h culture with chemical",1.2
same,"The level of expressed mRNA in the presence of chemical substance/ in its absence, gene YDL078C","energy system protein genes, 2 h culture with the chemical, ratio to control without chemical",1.1
same,"The level of expressed mRNA in the presence of chemical substance/ in its absence, gene YDL078C",ratio of DNA chip fluorescence intensity to that without chemical substance,1.1
same,The level of expressed mRNA in the presence of chemical substance/in the absence of chemical substance,yeast gene YDL095W,0.7
same,The level of expressed mRNA in the presence of chemical substance/,yeast gene YDL113C,1.2
same,The level of expressed mRNA in the presence of chemical substance/,yeast gene YDL123W,1.1
same,The level of expressed mRNA in the presence of chemical substance/in the absence of chemical substance,yeast gene YDL124W,2.2
same,The level of expressed mRNA in the presence of chemical substance/ (ratio to absence),yeast gene YDL128W,0.9
same,The level of expressed mRNA in the presence of chemical substance/ (ratio to absence),yeast gene YDL149W,0.8
same,The level of expressed mRNA in the presence of chemical substance/in the absence of chemical substance,yeast gene YDL174C,2.2
same,The level of expressed mRNA in the presence of chemical substance/ (ratio to absence),yeast gene YDL198C,1.5
same,The level of expressed mRNA in the presence of chemical substance/ (ratio to absence),yeast gene YDL206W,1.0
same,The level of expressed mRNA in the presence of chemical substance/ (ratio to absence),yeast gene YDL210W,1.1
same,"The level of expressed mRNA in the presence of chemical substance/ (in its absence), gene YDL215C","yeast gene YDL215C, ratio of DNA chip fluorescence intensity to that without chemical substance",1.1
same,The level of expressed mRNA in the presence of chemical substance/,yeast gene YDL234C,2.3
same,The level of expressed mRNA in the presence of chemical substance/The level of expressed mRNA in the absence of chemical substance,yeast gene YDL238C,1.1
same,The level of expressed mRNA in the presence of chemical substance/,yeast gene YDL242W,0.9
same,The level of expressed mRNA in the presence of chemical substance/in the absence of chemical substance,yeast gene YDL243C,1.8
same,The level of expressed mRNA in the presence of chemical substance/in the absence of chemical substance,yeast gene YDL245C,1.0
same,The level of expressed mRNA in the presence of chemical substance/ (ratio to absence),yeast gene YDL245C,1.0
same,The level of expressed mRNA in the presence of chemical substance/in the absence of chemical substance,yeast gene YDL246C,1.8
same,The level of expressed mRNA in the presence of chemical substance/in the absence of chemical substance,yeast gene YDR001C,1.1
same,The level of expressed mRNA in the presence of chemical substance/,yeast gene YDR018C,0.9
same,The level of expressed mRNA in the presence of chemical substance/ (ratio to absence),yeast gene YDR038C,1.3
same,The level of expressed mRNA in the presence of chemical substance/ (ratio to absence),yeast gene YDR039C,1.1
same,The level of expressed mRNA in the presence of chemical substance/ (ratio to absence),yeast gene YDR040C,1.4
same,The level of expressed mRNA in the presence of chemical substance/The level of expressed mRNA in the absence of chemical substance,yeast gene YDR055W,2.0
same,The level of expressed mRNA in the presence of chemical substance/,yeast gene YDR056C,1.2
same,The level of expressed mRNA in the presence of chemical substance/in the absence of chemical substance,yeast gene YDR058C,1.1
same,The level of expressed mRNA in the presence of chemical substance/in the absence of chemical substance,yeast gene YDR072C,1.9
same,"The level of expressed mRNA in the presence of chemical substance/ (in its absence), gene YDR073W","yeast gene YDR073W, ratio of DNA chip fluorescence intensity to that without chemical substance",1.8
same,"The level of expressed mRNA in the presence of chemical substance/ in its absence, gene YDR079W","yeast gene YDR079W, energy system protein genes, 2 h culture with the chemical, ratio to control without chemical",1.1
same,"The level of expressed mRNA in the presence of chemical substance/ (ratio to absence), gene YDR079W","yeast gene YDR079W, mitochondria-located protein genes, 2 h culture with chemical",1.1
same,The level of expressed mRNA in the presence of chemical substance/The level of expressed mRNA in the absence of chemical substance,yeast gene YDR084C,2.0
same,The level of expressed mRNA in the presence of chemical substance/The level of expressed mRNA in the absence of chemical substance,yeast gene YDR085C,1.3
same,The level of expressed mRNA in the presence of chemical substance/The level of expressed mRNA in the absence of chemical substance,yeast gene YDR104C,0.9
same,The level of expressed mRNA in the presence of chemical substance/The level of expressed mRNA in the absence of chemical substance,yeast gene YDR115W,1.2
same,The level of expressed mRNA in the presence of chemical substance/in the absence of chemical substance,yeast gene YDR127W,0.9
same,The level of expressed mRNA in the presence of chemical substance/,yeast gene YDR132C,1.0
same,The level of expressed mRNA in the presence of chemical substance/,yeast gene YDR154C,1.5
same,The level of expressed mRNA in the presence of chemical substance/in the absence of chemical substance,yeast gene YDR158W,1.0
same,The level of expressed mRNA in the presence of chemical substance/,yeast gene YDR202C,1.0
same,The level of expressed mRNA in the presence of chemical substance/in the absence of chemical substance,yeast gene YDR204W,1.1
same,The level of expressed mRNA in the presence of chemical substance/,yeast gene YDR223W,0.9
same,The level of expressed mRNA in the presence of chemical substance/The level of expressed mRNA in the absence of chemical substance,yeast gene YDR259C,1.0
same,The level of expressed mRNA in the presence of chemical substance/in the absence of chemical substance,yeast gene YDR261C,0.9
same,The level of expressed mRNA in the presence of chemical substance/ (ratio to absence),yeast gene YDR270W,0.9
same,The level of expressed mRNA in the presence of chemical substance/in the absence of chemical substance,yeast gene YDR272W,1.4
same,The level of expressed mRNA in the presence of chemical substance/,yeast gene YDR295C,0.8
same,"The level of expressed mRNA in the presence of chemical substance/ (in its absence), gene YDR297W","yeast gene YDR297W, ratio of DNA chip fluorescence intensity to that without chemical substance",1.9

# Reference: patent US20050112573A1, “Method of detecting toxic substance” (priority 2001, published 2005)
